Experimental data taken from patent US20250236608A1, “EGFR INHIBITORS” (Blueprint Medicines Corporation, priority 2022, published 2025).
Counter-ions that a name gives are not always drawn.

Legend:
[1] = biological target: pEGFR (Tyr1068) in PC-9 cells (Ex19Del) (Homo sapiens (Human), UniProt P00533, DEL746-750); experiment: PC-9 pEGFR AlphaLISA assay; type: cell-based; conditions: 4 hours incubation, p-EGFR (Tyr1068) AlphaLISA, read-out: Ext pEGFR_PC-9 Ex19Del IC50
How it was run: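 PC-9 cells seeded overnight in phenol-free DMEM with 10% FBS, then treated 4 h at 37°C with a 10-point, 4-fold compound series. Lysates assayed for pEGFR Tyr1068 by AlphaLISA SureFire; IC50 from % inhibition vs log concentration.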

[2] = biological target: EGFR L858R (Homo sapiens (Human), UniProt P00533, L858R); experiment: Biochemical EGFR inhibition assay, EGFR L858R; conditions: Caliper mobility shift; 1.0 mM ATP or ATP Km; read-out: Enz EGFR_L858R IC50
Chain of EGFR L858R (P00533 25-1210 L858R): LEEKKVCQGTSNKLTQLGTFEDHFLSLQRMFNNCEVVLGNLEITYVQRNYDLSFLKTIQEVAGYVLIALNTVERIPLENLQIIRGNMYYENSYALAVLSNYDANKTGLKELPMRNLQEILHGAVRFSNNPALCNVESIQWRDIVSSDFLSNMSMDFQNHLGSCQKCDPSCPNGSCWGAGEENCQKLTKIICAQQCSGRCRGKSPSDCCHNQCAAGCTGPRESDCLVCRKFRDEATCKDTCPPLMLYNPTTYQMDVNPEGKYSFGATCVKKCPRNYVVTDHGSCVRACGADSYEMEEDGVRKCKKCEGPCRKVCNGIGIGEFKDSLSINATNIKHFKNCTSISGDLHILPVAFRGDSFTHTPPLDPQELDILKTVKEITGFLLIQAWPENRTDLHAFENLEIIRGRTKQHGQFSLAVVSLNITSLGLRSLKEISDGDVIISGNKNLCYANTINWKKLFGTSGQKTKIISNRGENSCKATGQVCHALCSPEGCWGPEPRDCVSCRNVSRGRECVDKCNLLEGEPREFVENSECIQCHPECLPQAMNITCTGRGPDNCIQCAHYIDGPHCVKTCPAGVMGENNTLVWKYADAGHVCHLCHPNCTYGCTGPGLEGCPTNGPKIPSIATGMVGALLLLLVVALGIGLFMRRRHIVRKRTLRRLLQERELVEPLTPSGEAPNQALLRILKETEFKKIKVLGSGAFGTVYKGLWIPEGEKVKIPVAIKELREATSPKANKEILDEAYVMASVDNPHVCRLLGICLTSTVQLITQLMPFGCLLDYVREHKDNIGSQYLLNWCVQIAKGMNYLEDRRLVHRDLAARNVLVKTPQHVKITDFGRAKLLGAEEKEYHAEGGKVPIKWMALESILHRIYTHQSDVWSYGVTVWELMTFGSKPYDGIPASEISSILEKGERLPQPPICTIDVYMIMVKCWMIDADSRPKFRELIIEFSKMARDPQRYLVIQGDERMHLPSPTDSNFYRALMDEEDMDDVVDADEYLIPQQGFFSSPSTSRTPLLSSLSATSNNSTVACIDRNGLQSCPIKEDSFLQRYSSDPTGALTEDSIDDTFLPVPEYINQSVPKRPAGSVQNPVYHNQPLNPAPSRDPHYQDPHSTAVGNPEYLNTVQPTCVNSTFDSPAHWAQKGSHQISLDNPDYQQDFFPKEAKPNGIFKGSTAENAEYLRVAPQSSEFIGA

[3] = biological target: EGFR (d746-750) (Homo sapiens (Human), UniProt P00533, DEL746-750); experiment: Biochemical EGFR inhibition assay, EGFR (d746-750); conditions: Caliper mobility shift; 1.0 mM ATP or ATP Km; read-out: Enz EGFR_Exon19-del746-750 IC50
Chain of EGFR (d746-750) (P00533 other isoform, or with tags, fused parts or gaps del 1-694/del 746-750 limits assumed): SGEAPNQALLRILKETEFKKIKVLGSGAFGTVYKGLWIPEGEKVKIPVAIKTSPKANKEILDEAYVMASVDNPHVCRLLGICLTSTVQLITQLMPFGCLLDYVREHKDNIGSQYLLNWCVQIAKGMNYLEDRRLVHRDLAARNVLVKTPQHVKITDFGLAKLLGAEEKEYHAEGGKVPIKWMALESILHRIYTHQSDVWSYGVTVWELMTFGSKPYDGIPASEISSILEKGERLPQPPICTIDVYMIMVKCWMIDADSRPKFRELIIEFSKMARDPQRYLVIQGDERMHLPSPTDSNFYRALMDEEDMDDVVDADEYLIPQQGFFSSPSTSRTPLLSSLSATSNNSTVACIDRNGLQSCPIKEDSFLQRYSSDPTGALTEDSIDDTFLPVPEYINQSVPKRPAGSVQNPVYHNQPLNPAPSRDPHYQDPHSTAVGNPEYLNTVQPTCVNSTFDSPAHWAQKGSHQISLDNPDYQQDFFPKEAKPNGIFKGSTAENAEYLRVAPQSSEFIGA

Chain of pEGFR (Tyr1068) in PC-9 cells (Ex19Del) (P00533 other isoform, or with tags, fused parts or gaps del 746-750): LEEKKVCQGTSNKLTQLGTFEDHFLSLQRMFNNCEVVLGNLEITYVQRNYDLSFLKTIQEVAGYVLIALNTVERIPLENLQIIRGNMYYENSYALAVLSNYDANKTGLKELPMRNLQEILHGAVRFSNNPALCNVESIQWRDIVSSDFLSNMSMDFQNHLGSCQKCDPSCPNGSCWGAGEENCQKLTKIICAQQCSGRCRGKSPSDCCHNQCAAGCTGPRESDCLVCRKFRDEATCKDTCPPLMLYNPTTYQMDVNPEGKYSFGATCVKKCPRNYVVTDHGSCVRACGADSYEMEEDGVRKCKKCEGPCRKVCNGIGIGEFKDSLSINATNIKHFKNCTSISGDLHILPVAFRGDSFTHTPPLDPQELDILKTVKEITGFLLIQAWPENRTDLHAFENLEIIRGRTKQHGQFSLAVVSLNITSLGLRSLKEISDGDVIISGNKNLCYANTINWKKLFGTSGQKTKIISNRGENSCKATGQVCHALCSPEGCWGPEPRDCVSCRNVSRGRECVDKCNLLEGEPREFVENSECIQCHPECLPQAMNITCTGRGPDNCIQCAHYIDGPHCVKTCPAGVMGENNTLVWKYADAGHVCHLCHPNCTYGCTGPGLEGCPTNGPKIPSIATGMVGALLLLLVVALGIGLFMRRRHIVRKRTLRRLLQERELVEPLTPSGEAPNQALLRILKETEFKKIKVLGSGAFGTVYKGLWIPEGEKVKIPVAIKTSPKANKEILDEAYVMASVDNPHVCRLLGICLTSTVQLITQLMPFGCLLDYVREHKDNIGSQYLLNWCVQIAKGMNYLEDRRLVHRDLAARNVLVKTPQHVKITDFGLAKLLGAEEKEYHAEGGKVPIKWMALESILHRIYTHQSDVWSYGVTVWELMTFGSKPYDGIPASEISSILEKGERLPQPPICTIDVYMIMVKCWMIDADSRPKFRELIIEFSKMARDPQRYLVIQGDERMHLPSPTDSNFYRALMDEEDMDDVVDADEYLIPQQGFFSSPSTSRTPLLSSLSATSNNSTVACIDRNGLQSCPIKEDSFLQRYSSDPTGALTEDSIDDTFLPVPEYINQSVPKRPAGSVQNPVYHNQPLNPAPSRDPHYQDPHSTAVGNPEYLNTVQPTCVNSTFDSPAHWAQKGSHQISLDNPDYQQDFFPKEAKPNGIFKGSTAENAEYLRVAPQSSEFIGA

| IC50 [1] | IC50 [2] | IC50 [3] | SMILES |
| --- | --- | --- | --- |
| 3.6 nM | 10.5 nM | 2.8 nM | Cc1nnc([C@@H](C)Oc2nc3c(-c4cn(C)nc4-c4ccccc4)ncnc3cc2OC2CC2)o1 (single isomer, unassigned) [Example 478, 2-[(1S)-1-{[7-cyclopropoxy-4-(1-methyl-3-phenyl-1H-pyrazol-4-yl)pyrido[3,2-d]pyrimidin-6-yl]oxy}ethyl]-5-methyl-1,3,4-oxadiazole or 2-[(1R)-1-{[7-cyclopropoxy-4-(1-methyl-3-phenyl-1H-pyrazol-4-yl)pyrido[3,2-d]pyrimidin-6-yl]oxy}ethyl]-5-methyl-1,3,4-oxadiazole] |
| 3.2 nM | 1.9 nM | 0.9 nM | COc1cc2ncnc(-c3cn(CC(F)F)nc3-c3ccccc3)c2cc1C1(O)CC1 [Example 126, 1-(4-(1-(2,2-difluoroethyl)-3-phenyl-1H-pyrazol-4-yl)-7-methoxyquinazolin-6-yl)cyclopropan-1-ol] |
| 1.2 nM | 2 nM | 0.9 nM | CCOc1cc2ncnc(-c3cn(CC)nc3-c3ccccc3)c2cc1N1CCOCC1 [Example 170, 4-(7-ethoxy-4-(1-ethyl-3-phenyl-1H-pyrazol-4-yl)quinazolin-6-yl)morpholine] |
| 0.7 nM | 0.7 nM | 0.4 nM | COc1cc2ncnc(-c3cn(C)nc3-c3ccccc3)c2nc1NC(=O)c1cnc(C2CC2)s1 [Example 318, 2-cyclopropyl-N-(7-methoxy-4-(1-methyl-3-phenyl-1H-pyrazol-4-yl)pyrido[3,2-d]pyrimidin-6-yl)thiazole-5-carboxamide] |
| 4.7 nM | 5 nM | 1.7 nM | COc1cc2ncnc(-c3cn(C)nc3-c3ccccc3)c2cc1NC(=O)C(C)N(C)C (stereo not drawn) [Example 220, 2-(dimethylamino)-N-(7-methoxy-4-(1-methyl-3-phenyl-1H-pyrazol-4-yl)quinazolin-6-yl)propanamide] |
| 7.6 nM | 7.1 nM | 1.9 nM | COc1cc2ncnc(-c3cn(C)nc3-c3ccccc3)c2cc1-c1cccc2c1cnn2C [Example 141, 7-methoxy-6-(1-methyl-1H-indazol-4-yl)-4-(1-methyl-3-phenyl-1H-pyrazol-4-yl)quinazoline] |
| 4.3 nM | 3.1 nM | 1.8 nM | COc1cc2ncnc(-c3cn(C)nc3-c3ccccc3)c2cc1O[C@@H]1CCOC[C@H]1F [Example 18, 6-(((3R,4R)-3-fluorotetrahydro-2H-pyran-4-yl)oxy)-7-methoxy-4-(1-methyl-3-phenyl-1H-pyrazol-4-yl)quinazoline] |
| 4.6 nM | 5.6 nM | 2.1 nM | COc1cc2ncnc(-c3cn(C)nc3-c3ccccc3)c2cc1-c1cccc2cn(C)nc12 [Example 138, 7-methoxy-6-(2-methyl-2H-indazol-7-yl)-4-(1-methyl-3-phenyl-1H-pyrazol-4-yl)quinazoline] |
| 0.7 nM | 2.2 nM | 1.6 nM | COc1cc2ncnc(-c3cn(C)nc3-c3ccccc3)c2cc1NC(=O)[C@H]1C[C@H]1C [Example 282, (1S,2R)—N-(7-methoxy-4-(1-methyl-3-phenyl-1H-pyrazol-4-yl)quinazolin-6-yl)-2-methylcyclopropane-1-carboxamide] |
| 5.6 nM | 2.8 nM | 1.3 nM | COc1cc2ncnc(-c3cn(C)nc3-c3ccccc3)c2cc1O[C@@H]1CCOC1 [Example 12, (R)-7-methoxy-4-(1-methyl-3-phenyl-1H-pyrazol-4-yl)-6-((tetrahydrofuran-3-yl)oxy)quinazoline] |
| 3.8 nM | 2 nM | 1.4 nM | COc1cc2ncnc(-c3cn(C)nc3-c3ccccc3)c2cc1NC(=O)c1c(C)cccc1F [Example 201, 2-fluoro-N-(7-methoxy-4-(1-methyl-3-phenyl-1H-pyrazol-4-yl)quinazolin-6-yl)-6-methylbenzamide] |
| 1.1 nM | 1.1 nM | 0.3 nM | CCOc1cc2ncnc(-c3cn(C)nc3-c3ccc(F)cc3)c2nc1NC(=O)[C@]12COC[C@H]1C2 (single isomer, unassigned) [Example 384, (1S,5S)—N-(7-ethoxy-4-(3-(4-fluorophenyl)-1-methyl-1H-pyrazol-4-yl)pyrido[3,2-d]pyrimidin-6-yl)-3-oxabicyclo[3.1.0]hexane-1-carboxamide or (1R,5R)—N-(7-ethoxy-4-(3-(4-fluorophenyl)-1-methyl-1H-pyrazol-4-yl)pyrido[3,2-d]pyrimidin-6-yl)-3-oxabicyclo[3.1.0]hexane-1-carboxamide] |
| 8.7 nM | 4.2 nM | 2.5 nM | COc1cc2ncnc(-c3cn(C)nc3-c3ccccc3)c2cc1OC(=O)N1CCOC[C@@H]1C [Example 62, 7-methoxy-4-(1-methyl-3-phenyl-1H-pyrazol-4-yl)quinazolin-6-yl (S)-3-methylmorpholine-4-carboxylate] |
| 6.1 nM | 2.8 nM | 1.3 nM | COc1cc2ncnc(-c3cn(C)nc3-c3ccccc3)c2cc1NC(=O)[C@@]12COC[C@@H]1C2 (single isomer, unassigned) [Example 261, (1R,5R)—N-(7-methoxy-4-(1-methyl-3-phenyl-1H-pyrazol-4-yl)quinazolin-6-yl)-5-methyl-3-oxabicyclo[3.1.0]hexane-1-carboxamide or (1S,5S)—N-(7-methoxy-4-(1-methyl-3-phenyl-1H-pyrazol-4-yl)quinazolin-6-yl)-3-oxabicyclo[3.1.0]hexane-1-carboxamide] |
| 38.6 nM | 1.4 nM | 1.8 nM | Cn1cc(-c2ccc3c(-c4cnn(C)c4-c4ccccc4)ncnc3c2)cn1 [Example 497] |
| 0.8 nM | 1.6 nM | 1 nM | COc1cc2ncnc(-c3cn(C)nc3-c3ccccc3)c2cc1NC(=O)C1CC1 [Example 344, N-(7-methoxy-4-(1-methyl-3-phenyl-1H-pyrazol-4-yl)quinazolin-6-yl)cyclopropanecarboxamide] |
| 14.8 nM | 28.9 nM | 5.3 nM | CCc1cc2ncnc(-c3cn(C)nc3-c3ccccc3)c2nc1NC(=O)C12COCC1C2 (stereo not drawn) [Example 452, N-(7-ethyl-4-(1-methyl-3-phenyl-1H-pyrazol-4-yl)pyrido[3,2-d]pyrimidin-6-yl)-3-oxabicyclo[3.1.0]hexane-1-carboxamide] |
| 1.1 nM | 1.1 nM | 0.6 nM | CCn1cc(-c2ncnc3cc(OC)c(NC(=O)[C@@]45COC[C@@H]4C5)cc23)c(-c2ccccc2F)n1 (mixture of isomers) [Example 262, (1R,5R)—N-(4-(1-ethyl-3-(2-fluorophenyl)-1H-pyrazol-4-yl)-7-methoxyquinazolin-6-yl)-3-oxabicyclo[3.1.0]hexane-1-carboxamide and (1S,5S)—N-(4-(1-ethyl-3-(2-fluorophenyl)-1H-pyrazol-4-yl)-7-methoxyquinazolin-6-yl)-3-oxabicyclo[3.1.0]hexane-1-carboxamide] |
| 0.8 nM | 1.7 nM | 1 nM | COc1cc2ncnc(-c3cn(C)nc3-c3ccccc3)c2cc1NC(=O)[C@@H]1CCN(C)C[C@H]1F (racemic) [Example 339, trans-rac-(3R,4R)-3-fluoro-N-(7-methoxy-4-(1-methyl-3-phenyl-1H-pyrazol-4-yl)quinazolin-6-yl)-1-methylpiperidine-4-carboxamide trifluoroacetate] |
| 8.7 nM | 9.3 nM | 3.9 nM | COc1cc2ncnc(-c3cn(C)nc3-c3ccccc3)c2nc1NC(=O)[C@H](C)N(C)C [Example 390, (S)-2-(dimethylamino)-N-(7-methoxy-4-(1-methyl-3-phenyl-1H-pyrazol-4-yl)pyrido[3,2-d]pyrimidin-6-yl) propenamide] |
| 3.9 nM | 5.1 nM | 3 nM | COc1cc2ncnc(-c3cn(C)nc3-c3ccccc3)c2cc1NC(=O)C1(C)CCCO1 (stereo not drawn) [Example 224, N-(7-methoxy-4-(1-methyl-3-phenyl-1H-pyrazol-4-yl)quinazolin-6-yl)-2-methyltetrahydrofuran-2-carboxamide] |
| 5.2 nM | 2.1 nM | 1.3 nM | CCOc1cc2ncnc(-c3cn(C)nc3-c3ccccc3)c2cc1[C@@H](C)O (single isomer, unassigned) [Example 104, (R)-1-(7-ethoxy-4-(1-methyl-3-phenyl-1H-pyrazol-4-yl)quinazolin-6-yl)ethan-1-ol or (S)-1-(7-ethoxy-4-(1-methyl-3-phenyl-1H-pyrazol-4-yl)quinazolin-6-yl)ethan-1-ol] |
| 1.4 nM | 2.1 nM | 0.9 nM | COc1cc2ncnc(-c3cn(CC(F)F)nc3-c3ccccc3)c2cc1OC(=O)N1CCOC[C@@H]1C [Example 76, 4-(1-(2,2-difluoroethyl)-3-phenyl-1H-pyrazol-4-yl)-7-methoxyquinazolin-6-yl (S)-3-methylmorpholine-4-carboxylate] |

| SMILES | IC50 [1] | IC50 [2] | IC50 [3] |
| --- | --- | --- | --- |
| COc1cc2ncnc(-c3cn(C)nc3-c3ccccc3)c2cc1OC(=O)N1CCN(C)C(C)(C)C1 [Example 77, 7-methoxy-4-(1-methyl-3-phenyl-1H-pyrazol-4-yl)quinazolin-6-yl 3,3,4-trimethylpiperazine-1-carboxylate] | 9.7 nM | 7.2 nM | 3.5 nM |
| COc1cc2ncnc(-c3cn(C)nc3-c3ccccc3)c2cc1OC(=O)N1CCN2CCCC2C1 (stereo in doubt) [Example 84, 7-methoxy-4-(1-methyl-3-phenyl-1H-pyrazol-4-yl)quinazolin-6-yl (S)-hexahydropyrrolo[1,2-a]pyrazine-2(1H)-carboxylate] | 6.5 nM | 4.9 nM | 3.3 nM |
